Results: paper PMC5317004 (Scientific Reports, 2017)

Test system: chimeric α7-GluClβR
Experiment: Voltage ramps during current decline: reversal potential, chloride chord conductance, IVM rate constants
Assay type: cell-based, chick nAChR α7 / C. elegans GluClβ
Description: Figure 6 Chloride conductance of α7-GluClβRs. Representative whole-cell current traces elicited by: (A) ACh alone and (B) ACh to which IVM was added after the current peak. Recordings were performed at −60 mV with intervening 200-ms-long voltage ramps applied from −80 to +20 mV during the current decline, giving output currents r1–r13. *, time lapse of ~1 sec between protocols’ exchange (see “Supplementary Materials and Methods”). Traces in A and B were recorded from the same cell, with an intermediate 74-sec-long wash. Right panels show superimposition of the output currents. (C,D) Current-voltage (I/V) relations extracted from A and B, respectively (r13 in D overlaps the x-axis). (E) Reversal potentials (Erev) extracted from the voltage-ramps’ output currents of A (black squares) and B (red circles), plotted as a function of time (0 sec, time of r1). (F) Decay of chloride chord conductance plotted as a function of time, in the absence or presence of IVM. The conductance points were calculated at −65 mV based on the voltage-ramps’ output currents shown in A and B. Exponential fits (Eq. 6) are shown. (G,H) Normalized (Norm.) conductance (G), current (I), intracellular Cl^− ion concentration ([Cl]i), and electrochemical driving force (VDF) plotted as a function of time for ACh-dependent responses in the absence (panel G) or presence (panel H) of IVM (relating to responses in A and B, respectively). (I,J) Decay of chloride chord conductance plotted as a function of time in representative cells exposed to different IVM concentrations. (K,L,M) Averaged normalized chloride chord conductance (Norm. G) plotted as a function of time under different IVM concentrations. In each cell, each conductance was normalized to the conductance extracted from r1 of the ACh-alone application. N = 7, 11 and 8 in K, L and M, respectively. Error bars are SEM. (N) 1/τIVM plotted as a function of IVM concentration, using equation 7 for curve fitting by linear regression (r^2 = 0.999). 26 cells were analyzed to obtain the averaged 1/τIVM points. Error bars are SEM.
We then took advantage of the capability of IVM to accelerate the current decline in order to determine the binding affinity of IVM. To this end, the voltage ramps’ output currents obtained in the presence of IVM were subtracted from their counterpart currents obtained in the absence of IVM. Then, we calculated the chloride conductance based on the resulting subtracted currents at each ramp. This chloride conductance is hereafter termed GIVM. In each experimented cell, we fitted exponential curves to the first 5-6 conductance points, where there was no substantial difference between the ∆Erev values in the absence or presence of IVM. These exponential fits for the GIVM points were obtained at various IVM concentrations, and they actually provide the time constant of the IVM-dependent Cl^−-conductance decay (τIVM).
Chord conductance (G) was calculated by using equation 5 as follows: […]
The relationship between the conductance values and time was plotted for each cell, and the time constant of conductance decay was determined by fitting an exponential curve to the data points using equation 6 as follows: […]
To calculate the IVM association (kf) and dissociation (kb) rate constants, a curve was fitted to the 1/τIVM values by a linear regression using equation 7 as follows: where τIVM is the time constant of the IVM-dependent Cl^−-conductance decay, and [IVM] is the concentration of IVM. […]

CC[C@H](C)[C@H]1O[C@]2(CC[C@@H]1C)C[C@@H]1C[C@@H](C/C=C(\C)[C@@H](O[C@H]3C[C@H](OC)[C@@H](O[C@H]4C[C@H](OC)[C@@H](O)[C@H](C)O4)[C@H](C)O3)[C@@H](C)/C=C/C=C3\CO[C@@H]4[C@H](O)C(C)=C[C@@H](C(=O)O1)[C@]34O)O2 [IVM, Ivermectin]
IVM-dependent decrease in the chloride conductance (0.5 μM IVM, 740 milliseconds after application, 30 μM ACh): 20 ± 2% | leftward shift in reversal potential (∆Erev) (30 μM ACh plus 4 μM IVM added after the peak, representative cell): 11 mV | Kd (IVM applied after activation by ACh, read-out: Kd (kb/kf) for IVM binding to activated receptor): 1400 nM | Kd (after activation) relative to IC50/Ki (prior to activation) (Kd […] vs 156 nM): nine times higher | IVM association rate constant (k forward, kf) (slope of 1/τIVM vs IVM concentration, 30 μM ACh, 26 cells): 290800 M^−1⋅s^−1
